Measured values published in patent US11820984B2, “Double-helix oligonucleotide construct comprising double-stranded miRNA and use thereof” (BIONEER CORPORATION, priority 2018, dated 2023).

Key:
PC9 cell line = test: relative cell viability (CellTiter-Glo), erlotinib-sensitive line; assay type: cell-based; details: PC9, 96 hours
Experimental: (§1) After 96 hours of additional culture, the relative viability of the cells was measured. These cell lines were used because they have genetic characteristics and drug resistance as follows. […] On the other hand, PC9/GR and PC9/ER contain delE764-A750 mutation, like PC9, and have T790M mutation. […] H1975 has L858R and T790M mutations, H596 has overexpressed EGFR, and H1650 has delE764-A750 mutation. […] The cell viability was measured using the CellTiter-Glo used in Example 1.

[1] = system: PC9/GR, PC9/ER, H1975, H596 and H1650 cell lines having resistance to erlotinib; test: relative cell viability (CellTiter-Glo), erlotinib-resistant lines; assay type: cell-based; details: cell lines having resistance to erlotinib (EGFR T790M etc.), 96 hours
Experimental: as §1, with “measured.” for “measured. These cell lines were used because they have genetic characteristics and drug resistance as follows.”

[2] = system: proteins involved in the EGFR signaling pathway; test: Western blot analysis of proteins involved in the EGFR signaling pathway; assay type: cell-based
Source text: It is known that the EGFR signaling pathway in the lung cancer cell lines used in the Examples is activated due to the presence of mutation in the EGFR protein and activation of the EGFR signaling pathway plays an important role in the survival of the cell lines.

EGFR mRNA = test: RT-qPCR relative expression level of EGFR mRNA; assay type: cell-based; details: PC9, PC9/ER, H1975 and H596, versus negative control
3′ UTR of EGFR mRNA = test: luciferase assay with EGFR 3′ UTR firefly luciferase vector in HEK cells; assay type: cell-based, human
Source text: Since miRNA inhibits protein production from target mRNA by binding to the 3′ UTR (untranslated region) of the target mRNA, luciferase assay is generally used as a method of directly measuring the relationship between miRNA and the target mRNA. Using the TargetScan software, a 3′ UTR sequence comprising a miRNA binding sequence was predicted. The predicted 3′ UTR sequence was cloned into the 3′ UTR of firefly luciferase by a gene cloning technique. The constructed vector and the miRNA of interest were co-transfected into human embryonic kidney (HEK) cells, and the luciferase expression level of the vector was measured. […] At this time, in order to correct the transfection efficiency, Renilla luciferase was also transfected to correct the measurement value. After co-transfection of the miRNA, firefly luciferase and Renilla luciferase, the cells were cultured for 48 hours, and then the luciferase activity was measured using a luminometer.

[3] = system: PC9 and PC9/ER cell lines; test: apoptosis analysis by annexin V / propidium iodide flow cytometry (FACS); assay type: cell-based; details: RNAiMax transfection, 48 hours, versus miRNA control
Experimental: After 48 hours of additional culture, the cells were treated with FITC fluorescent dye-labeled annexin V and propidium iodide (PI) and analyzed by flow cytometry (FACS).

[4] = system: lung cancer cell lines H2009, H596, H1650, PC9, PC9/GR, H1975, HCC827, and A549; test: miRNA library screening, inhibition of proliferation (CellTiter-Glo); assay type: cell-based; details: 40 nM miRNA with RNAiMax, 96 hours, eight lung cancer cell lines
Experimental: Using the same miRNA library used in Korean Patent Application No. 10-2016-0022462, an experiment was performed to screen miRNAs that induce apoptosis of lung cancer cell lines. The lung cancer cell lines used in the experiment are as follows: H2009, H596, H1650, PC9, PC9/GR, H1975, HCC827, and A549 (purchased from the ATCC or the Korean Cell Line Bank). Each of the cell lines was seeded into a 96-well plate and treated with 40 nM of each miRNA together with the transfection reagent RNAiMax (Invitrogen), and the miRNA was delivered into the cells. After 96 hours of additional culture, the relative growth of the cells was measured using CellTiter-Glo reagent (Promega) (FIGS. 1 to 4).

[5] = Western blot, versus control group

C#Cc1cccc(Nc2ncnc3cc(OCCOC)c(OCCOC)cc23)c1 [erlotinib]
concentration at which cells could be killed (PC9 cell line): 0.1 µM
concentration at which apoptosis of the cells could be induced [1]: 10 µM

miR-544a: double-stranded miRNA consisting of SEQ ID NO: 1 (5'-AUUCUGCAUUUUUAGCAAGUUC-3') and SEQ ID NO: 2 (5'-ACUUGCUAAAAAUGCAGAAUUU-3') (listed as RNA, chemistry not given here)
inhibition of pEGFR and ERK phosphorylation, apoptosis (PARP) by Western blot ([2]; PC9 cell line): inhibit activated EGFR (pEGFR) and inhibit phosphorylation of the downstream signaling factor ERK
amount of ERK, an activated form of the ERK protein ([2]; Western blot): decreased
expression level of phosphorylated EGFR [2, 5]: also decreased compared to that in the control group
expression level of the EGFR protein [2, 5]: significantly decreased compared to that in the control group
inhibition of pEGFR and ERK phosphorylation, apoptosis (PARP) by Western blot ([2]; other cell lines having erlotinib resistance due to EGFR T790M mutation): only miR-544a exhibits this effect
expression of EGFR mRNA (EGFR mRNA): decreased in all the cell lines used in the experiment
luciferase activity, EGFR 3′UTR vector (3′ UTR of EGFR mRNA; HEK cells, co-transfection, 48 hours, Renilla-corrected): each target mRNA was controlled directly by the miRNA
luciferase activity, EGFR 3′UTR with mutations in target regions (3′ UTR of EGFR mRNA; mutations EGFR 3′UTR 250-256, 2288-2295, and 3476-3482 nt): the expression inhibition phenomenon by the miRNA disappeared
number of dead cells (annexin V/PI) [3]: significantly higher than that in the cell line treated with the miRNA control
inhibition of cell proliferation (relative growth of the cells) [4]: excellent effect against the cell lines used
